Assay results: patent US20230117034A1, “PYRAZOLOTRIAZINES” (Bayer Aktiengesellschaft, priority 2019, published 2023)

Key:
[1] = target: T1, CDK12 (nuclear staining in CAL-120 cells) (Homo sapiens, UniProt Q9NYV4); experiment: CDK12 nuclear protein level: immunofluorescence/high content analysis (CAL-120); assay type: cell-based; settings: for DC50: CAL-120 cells, 24 h, immunofluorescence, 50% reduction of nuclear CDK12 staining intensity, median, read-out: CDK12 degradation IF, DC50- [mol/l] (median); for (IC50 CDK12 high ATP) to (Degradation DC50 CDK12) ratio: ratio of IC50 CDK12 high ATP kinase assay to DC50 CDK12 degradation (IF, CAL-120)
T1 construct: endogenous in cells; host or cells: CAL-120 human breast cancer cells (DSMZ ACC 459)
T1 sequence (Q9NYV4 whole entry): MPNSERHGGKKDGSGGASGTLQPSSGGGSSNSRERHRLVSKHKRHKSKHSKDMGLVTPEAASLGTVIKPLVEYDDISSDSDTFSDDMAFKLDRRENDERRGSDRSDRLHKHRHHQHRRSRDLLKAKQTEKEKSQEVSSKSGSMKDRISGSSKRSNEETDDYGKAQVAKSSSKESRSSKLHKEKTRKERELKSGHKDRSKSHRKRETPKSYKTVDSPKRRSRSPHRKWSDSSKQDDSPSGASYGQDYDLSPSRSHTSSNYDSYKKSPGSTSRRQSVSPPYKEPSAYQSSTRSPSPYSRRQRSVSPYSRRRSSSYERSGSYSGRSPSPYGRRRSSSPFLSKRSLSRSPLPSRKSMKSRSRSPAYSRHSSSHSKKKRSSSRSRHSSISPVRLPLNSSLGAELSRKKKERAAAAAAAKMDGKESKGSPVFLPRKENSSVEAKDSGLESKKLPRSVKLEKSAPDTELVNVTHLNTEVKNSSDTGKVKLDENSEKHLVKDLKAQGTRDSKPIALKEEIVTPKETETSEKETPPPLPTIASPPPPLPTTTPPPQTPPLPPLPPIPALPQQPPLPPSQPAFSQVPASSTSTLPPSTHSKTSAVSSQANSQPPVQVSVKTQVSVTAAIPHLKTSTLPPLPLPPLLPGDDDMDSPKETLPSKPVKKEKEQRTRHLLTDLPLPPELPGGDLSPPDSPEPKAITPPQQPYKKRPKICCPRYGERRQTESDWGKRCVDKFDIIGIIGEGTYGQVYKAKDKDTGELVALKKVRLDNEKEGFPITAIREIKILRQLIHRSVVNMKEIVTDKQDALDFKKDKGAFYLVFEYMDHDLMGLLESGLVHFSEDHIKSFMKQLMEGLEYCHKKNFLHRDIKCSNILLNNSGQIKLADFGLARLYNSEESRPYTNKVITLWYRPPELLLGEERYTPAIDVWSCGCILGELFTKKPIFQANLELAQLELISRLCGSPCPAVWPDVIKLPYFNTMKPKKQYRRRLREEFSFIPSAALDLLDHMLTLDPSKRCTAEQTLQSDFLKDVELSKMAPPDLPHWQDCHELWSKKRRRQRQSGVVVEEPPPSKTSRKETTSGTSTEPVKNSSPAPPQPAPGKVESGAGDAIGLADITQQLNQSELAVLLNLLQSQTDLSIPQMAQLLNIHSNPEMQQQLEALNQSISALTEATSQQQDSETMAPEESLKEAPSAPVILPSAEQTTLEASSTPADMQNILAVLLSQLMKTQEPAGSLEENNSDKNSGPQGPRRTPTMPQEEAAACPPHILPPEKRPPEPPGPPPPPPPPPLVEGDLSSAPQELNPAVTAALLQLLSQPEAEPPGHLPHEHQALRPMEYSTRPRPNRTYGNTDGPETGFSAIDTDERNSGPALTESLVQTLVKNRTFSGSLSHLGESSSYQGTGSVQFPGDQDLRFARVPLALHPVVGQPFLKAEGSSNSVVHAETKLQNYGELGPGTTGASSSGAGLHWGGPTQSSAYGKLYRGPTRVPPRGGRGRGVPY
T1 sequence (O75909 whole entry partner): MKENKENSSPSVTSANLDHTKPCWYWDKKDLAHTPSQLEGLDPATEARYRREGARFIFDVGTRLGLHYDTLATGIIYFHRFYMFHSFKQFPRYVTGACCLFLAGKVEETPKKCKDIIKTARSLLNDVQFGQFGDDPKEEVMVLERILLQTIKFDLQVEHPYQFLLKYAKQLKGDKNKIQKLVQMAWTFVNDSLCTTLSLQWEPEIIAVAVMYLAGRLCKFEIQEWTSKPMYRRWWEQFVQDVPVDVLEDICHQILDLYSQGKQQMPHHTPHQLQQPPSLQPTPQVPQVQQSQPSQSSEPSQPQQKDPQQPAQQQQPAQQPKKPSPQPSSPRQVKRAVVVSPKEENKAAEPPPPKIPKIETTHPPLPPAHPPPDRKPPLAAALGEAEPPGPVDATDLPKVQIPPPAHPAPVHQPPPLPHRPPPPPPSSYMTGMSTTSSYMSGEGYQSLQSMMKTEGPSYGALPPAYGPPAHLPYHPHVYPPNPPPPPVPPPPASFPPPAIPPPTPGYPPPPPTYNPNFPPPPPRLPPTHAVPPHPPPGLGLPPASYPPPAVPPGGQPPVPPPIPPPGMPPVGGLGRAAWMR
How it was run: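 DC50 is the degrader concentration that halves nuclear CDK12 immunofluorescence relative to controls, measured by high-content imaging. CAL-120 cells were exposed to compound for 24 h at 37 °C before PFA fixation, and signal was normalized to DMSO and control wells.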

[2] = test system: CAL-120, human breast adenocarcinoma cells; experiment: Proliferation assay CAL-120 (crystal violet, 4 days); assay type: cell-based; settings: Homo sapiens, CAL-120, 96 h, CAL-120 cells, median, read-out: Prolif-CAL-120, IC50-[mol/l] (median)
How it was run: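 Growth was measured by crystal violet staining after cells had been treated with compounds (0.01-10 µmol/L, 0.1% DMSO) for 4 days, beginning 24 h after seeding. Values were normalized to a zero-point plate and to untreated controls, and IC50 values were derived by a four-parameter fit.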

CDK2/CycE = target: T2, CDK2/CycE (Homo sapiens, UniProt P24941); experiment: CDK2/CycE kinase assay (TR-FRET, 2 mM ATP); assay type: biochemical; settings: 2 mM ATP (high ATP); median; read-out: CDK2/CyclinE, 2 mM ATP (high ATP), IC50 (median)
T2 construct: purchased ProQinase GmbH (Freiburg, Germany); host or cells: insect cells (Sf9)
How it was run: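 Biotin-peptide phosphorylation (0.75 µM substrate, 2 mM ATP final, 25 min, 22 °C) by Sf9-expressed GST-CDK2/GST-CycE, after a 15-min compound pre-binding step. Inhibition scaled between enzyme-free (100%) and uninhibited (0%) wells.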

Row | Structure (SMILES) | DC50 [1] [nM] | (IC50 CDK12 high ATP) to (Degradation DC50 CDK12) ratio [1] | IC50 [2] [nM] | IC50 (CDK2/CycE) [nM]
1 | Brc1cnn2c(NCc3nc4ccccc4[nH]3)nc(N3CCC4(CCCN4)C3)nc12 (centres unmarked) [Example 215, N-(1H-benzimidazol-2-ylmethyl)-8-bromo-2-(1,7-diazaspiro[4.4]nonan-7-yl)pyrazolo[1,5-a][1,3,5]triazin-4-amine] | 7.88 | >2537 | 34.3 | 8980
2 | Brc1cnn2c(NCc3nc4ccccc4[nH]3)nc(N3CC4CCC(C3)N4)nc12 [Example 232, N-(1H-benzimidazol-2-ylmethyl)-8-bromo-2-(3,8-diazabicyclo[3.2.1]octan-3-yl)pyrazolo[1,5-a][1,3,5]triazin-4-amine] | > 3.6 |  | 5.25 | 2870
3 | OCCNc1nc(NCc2nc3ccccc3[nH]2)n2ncc(Br)c2n1 [Example 228, 2-[(4-{[(1H-benzimidazol-2-yl)methyl]amino}-8-bromopyrazolo[1,5-a][1,3,5]triazin-2-yl)amino]ethan-1-ol] | 47.1 | >425 | 273 | 9210
4 | CC(C)c1cnn2c(NCc3nc4ccccc4[nH]3)nc(Nc3ccccc3)nc12 [Example 13, N^4-[(1H-benzimidazol-2-yl)methyl]-N^2-phenyl-8-(propan-2-yl)pyrazolo[1,5-a][1,3,5]triazine-2,4-diamine] | 43.8 | >457 |  | > 20000
5 | CN(C)[C@H]1CCN(c2nc(NCc3nc4ccccc4[nH]3)n3ncc(Br)c3n2)C1 [Example 177, N-[(1H-benzimidazol-2-yl)methyl]-8-bromo-2-[(3S)-3-(dimethylamino)pyrrolidin-1-yl]pyrazolo[1,5-a][1,3,5]triazin-4-amine] | 35.7 | >561 | 68.8 | > 20000
6 | CCNc1nc(NCc2nc3ccccc3[nH]2)n2ncc(Br)c2n1 [Example 227, N4-(1H-benzimidazol-2-ylmethyl)-8-bromo-N2-ethyl-pyrazolo[1,5-a][1,3,5]triazine-2,4-diamine] | 16.8 | 565 | 44.2 | 1870
7 | CC1(O)CCN(c2nc(NCc3nc4ccccc4[nH]3)n3ncc(Br)c3n2)C1 (centres unmarked) [Example 225, 1-[4-(1H-benzimidazol-2-ylmethylamino)-8-bromo-pyrazolo[1,5-a][1,3,5]triazin-2-yl]-3-methyl-pyrrolidin-3-ol] | 22.1 | 466 | 62.7 | 5390
8 | CN1C[C@@H]2C[C@H]1CN2c1nc(NCc2nc3ccccc3[nH]2)n2ncc(Br)c2n1 [Example 219, N-[(1H-benzimidazol-2-yl)methyl]-8-bromo-2-[(1S,4S)-5-methyl-2,5-diazabicyclo[2.2.1]heptan-2-yl]pyrazolo[1,5-a][1,3,5]triazin-4-amine] | 16.2 | >1232 | 27.2 | > 20000
9 | CC(C)c1cnn2c(NCc3nc4ccccc4[nH]3)nc(Nc3ccncc3)nc12 [Example 14, N^4-[(1H-benzimidazol-2-yl)methyl]-8-(propan-2-yl)-N^2-(pyridin-4-yl)pyrazolo[1,5-a][1,3,5]triazine-2,4-diamine] | 14.6 | >1123 |  | > 20000
10 | OC1CCN(c2nc(NCc3nc4ccccc4[nH]3)n3ncc(Br)c3n2)CC1 [Example 17, 1-(4-{[(1H-benzimidazol-2-yl)methyl]amino}-8-bromopyrazolo[1,5-a][1,3,5]triazin-2-yl)piperidin-4-ol] | 5.98 | 957 |  | 2890
11 | CC1CN(c2nc(NCc3nc4ccccc4[nH]3)n3ncc(C(C)C)c3n2)CCO1 (racemic) [Example 11, (rac)-N-[(1H-benzimidazol-2-yl)methyl]-2-[2-methylmorpholin-4-yl]-8-(propan-2-yl)pyrazolo[1,5-a][1,3,5]triazin-4-amine] | 12.6 | 251 |  | 5510

Now from value to compound:

Row | DC50 [1] [nM] | (IC50 CDK12 high ATP) to (Degradation DC50 CDK12) ratio [1] | IC50 [2] [nM] | IC50 (CDK2/CycE) [nM] | Structure (SMILES)
12 | 1.9 | 8068 | 8.05 | > 19800 | Cc1ccc2[nH]c(CNc3nc(N4C[C@H]5C[C@@H]4CO5)nc4c(C5CC5)cnn34)nc2c1 [Example 196, 8-cyclopropyl-N-[(5-methyl-1H-benzimidazol-2-yl)methyl]-2-[(1R,4R)-2-oxa-5-azabicyclo[2.2.1]heptan-5-yl]pyrazolo[1,5-a][1,3,5]triazin-4-amine]
13 | 2.18 | 3781 | 4.46 | > 20000 | Cc1ccc2[nH]c(CNc3nc(N4C[C@@H]5CCCN[C@@H]5C4)nc4c(C5CC5)cnn34)nc2c1 [Example 195, 8-cyclopropyl-N-[(5-methyl-1H-benzimidazol-2-yl)methyl]-2-[(4aS,7aS)-octahydro-6H-pyrrolo[3,4-b]pyridin-6-yl]pyrazolo[1,5-a][1,3,5]triazin-4-amine]
14 | 0.878 | 2179 | 6.1 | > 20000 | Fc1ccc2[nH]c(CNc3nc(N4CCOCC4)nc4c(C5CC5)cnn34)nc2c1 [Example 181, 8-cyclopropyl-N-[(5-fluoro-1H-benzimidazol-2-yl)methyl]-2-(morpholin-4-yl)pyrazolo[1,5-a][1,3,5]triazin-4-amine]
15 | 0.606 | 548 | 1.16 | 1770 | OC[C@@H]1CCCCN1c1nc(NCc2nc3cc(F)ccc3[nH]2)n2ncc(C3CC3)c2n1 [Example 191, [(2S)-1-(8-cyclopropyl-4-{[(5-fluoro-1H-benzimidazol-2-yl)methyl]amino}pyrazolo[1,5-a][1,3,5]triazin-2-yl)piperidin-2-yl]methanol]
16 | 0.23 | 16078 | 1.16 | > 20000 | Cc1ccc2[nH]c(CNc3nc(N4C[C@@H](C)N[C@@H](C)C4)nc4c(C5CC5)cnn34)nc2c1 [Example 194, 8-cyclopropyl-2-[(3R,5S)-3,5-dimethylpiperazin-1-yl]-N-[(5-methyl-1H-benzimidazol-2-yl)methyl]pyrazolo[1,5-a][1,3,5]triazin-4-amine]
17 | 5.05 | 1191 | 29.5 | 6520 | Clc1cnn2c(NCc3nc4ccccc4[nH]3)nc(N3CCOCC3)nc12 [Example 15, N-[(1H-benzimidazol-2-yl)methyl]-8-chloro-2-(morpholin-4-yl)pyrazolo[1,5-a][1,3,5]triazin-4-amine]
18 | 0.727 | 2813 | 3.7 | > 20000 | Fc1cccc2[nH]c(CNc3nc(N4CCNCC4)nc4c(C5CC5)cnn34)nc12 [Example 182, 8-cyclopropyl-N-[(4-fluoro-1H-benzimidazol-2-yl)methyl]-2-(piperazin-1-yl)pyrazolo[1,5-a][1,3,5]triazin-4-amine]
19 | 0.574 | 5303 | 1 | > 20000 | C[C@@H]1CN(c2nc(NCc3nc4c(F)c(F)ccc4[nH]3)n3ncc(C4CC4)c3n2)C[C@H](C)N1 [Example 170, 8-cyclopropyl-N-[(4,5-difluoro-1H-benzimidazol-2-yl)methyl]-2-[(3R,5S)-3,5-dimethylpiperazin-1-yl]pyrazolo[1,5-a][1,3,5]triazin-4-amine]
20 | 1.41 | >14143 | 4.66 | > 20000 | Cc1ccc2[nH]c(CNc3nc(N4CCN(C)CC4)nc4c(C5CC5)cnn34)nc2c1 [Example 210, 8-cyclopropyl-N-[(5-methyl-1H-benzimidazol-2-yl)methyl]-2-(4-methylpiperazin-1-yl)pyrazolo[1,5-a][1,3,5]triazin-4-amine]
21 | 0.557 | 20 | 4.67 | 761 | OC[C@@H]1CCCCN1c1nc(NCc2nc3c(F)cccc3[nH]2)n2ncc(C3CC3)c2n1 [Example 189, [(2S)-1-(8-cyclopropyl-4-{[(4-fluoro-1H-benzimidazol-2-yl)methyl]amino}pyrazolo[1,5-a][1,3,5]triazin-2-yl)piperidin-2-yl]methanol]
22 | 1.09 | 3798 | 2.29 | > 19000 | COc1cccc2[nH]c(CNc3nc(N4C[C@@H](C)N[C@@H](C)C4)nc4c(C5CC5)cnn34)nc12 [Example 212, 8-cyclopropyl-2-[(3R,5S)-3,5-dimethylpiperazin-1-yl]-N-[(4-methoxy-1H-benzimidazol-2-yl)methyl]pyrazolo[1,5-a][1,3,5]triazin-4-amine]
